Source: patent publication US10738057B2, “Tertiary alcohols as PI3K-γ inhibitors” (Incyte Corporation, priority 2017, dated 2020)
Counter-ions that a name gives are not always drawn. Like-named read-outs stand apart in the source and are kept apart here.

Tests used:
[1] = molecular target: PI3Kγ (p110γ) Recombinant Human Protein (Homo sapiens (Human), UniProt P48736); test: PI3K-γ scintillation proximity assay; assay type: biochemical; details: 20 μM PIP2, 2 μM ATP, 13 nM PI3Kγ, 120 min, room temperature
Sequence of PI3Kγ (p110γ) Recombinant Human Protein (P48736 whole entry): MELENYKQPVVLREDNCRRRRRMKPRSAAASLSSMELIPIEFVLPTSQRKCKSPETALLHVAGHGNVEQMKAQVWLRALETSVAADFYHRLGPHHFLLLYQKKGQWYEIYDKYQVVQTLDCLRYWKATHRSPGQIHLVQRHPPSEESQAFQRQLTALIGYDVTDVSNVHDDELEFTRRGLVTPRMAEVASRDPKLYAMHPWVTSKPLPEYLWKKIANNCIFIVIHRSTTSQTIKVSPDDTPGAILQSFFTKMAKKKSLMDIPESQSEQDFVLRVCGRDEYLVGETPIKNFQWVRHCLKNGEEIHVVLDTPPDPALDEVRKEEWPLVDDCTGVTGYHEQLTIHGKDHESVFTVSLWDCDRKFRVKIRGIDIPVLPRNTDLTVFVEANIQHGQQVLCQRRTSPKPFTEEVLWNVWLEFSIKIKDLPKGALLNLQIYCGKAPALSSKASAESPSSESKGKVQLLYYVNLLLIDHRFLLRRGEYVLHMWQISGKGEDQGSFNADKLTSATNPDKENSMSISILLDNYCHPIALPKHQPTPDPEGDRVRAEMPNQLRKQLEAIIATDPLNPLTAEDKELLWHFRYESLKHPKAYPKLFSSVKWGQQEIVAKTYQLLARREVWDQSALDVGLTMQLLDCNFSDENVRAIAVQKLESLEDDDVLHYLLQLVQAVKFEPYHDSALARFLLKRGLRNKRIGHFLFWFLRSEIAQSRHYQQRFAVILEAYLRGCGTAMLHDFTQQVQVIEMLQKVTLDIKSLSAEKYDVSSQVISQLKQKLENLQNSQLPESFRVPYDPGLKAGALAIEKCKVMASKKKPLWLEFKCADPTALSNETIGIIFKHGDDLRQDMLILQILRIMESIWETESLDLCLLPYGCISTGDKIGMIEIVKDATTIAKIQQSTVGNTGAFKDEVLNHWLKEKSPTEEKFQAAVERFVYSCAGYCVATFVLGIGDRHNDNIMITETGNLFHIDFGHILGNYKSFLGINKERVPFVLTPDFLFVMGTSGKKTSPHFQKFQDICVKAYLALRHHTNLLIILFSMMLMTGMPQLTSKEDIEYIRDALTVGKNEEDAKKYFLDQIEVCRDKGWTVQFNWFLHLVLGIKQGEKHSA
How it was run: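 Radiometric SPA in 20 mM MOPS pH 6.7, 10 mM MgCl2, 5 mM DTT, 0.03% CHAPS, 2% DMSO. Stopped with EDTA and WGA SPA beads for scintillation counting. IC50 fitted from % solvent-control activity versus log concentration.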

[2] = molecular target: PI3Kδ (p110δ/p85α) Recombinant Human Protein (Homo sapiens (Human), UniProt O00329); test: PI3Kδ scintillation proximity assay; assay type: biochemical; details: 20 μM PIP2, 2 μM ATP, 3.4 nM PI3Kδ, 120 min, room temperature; read-out: PI3Kδ IC50
Sequence of PI3Kδ (p110δ/p85α) Recombinant Human Protein (O00329 whole entry): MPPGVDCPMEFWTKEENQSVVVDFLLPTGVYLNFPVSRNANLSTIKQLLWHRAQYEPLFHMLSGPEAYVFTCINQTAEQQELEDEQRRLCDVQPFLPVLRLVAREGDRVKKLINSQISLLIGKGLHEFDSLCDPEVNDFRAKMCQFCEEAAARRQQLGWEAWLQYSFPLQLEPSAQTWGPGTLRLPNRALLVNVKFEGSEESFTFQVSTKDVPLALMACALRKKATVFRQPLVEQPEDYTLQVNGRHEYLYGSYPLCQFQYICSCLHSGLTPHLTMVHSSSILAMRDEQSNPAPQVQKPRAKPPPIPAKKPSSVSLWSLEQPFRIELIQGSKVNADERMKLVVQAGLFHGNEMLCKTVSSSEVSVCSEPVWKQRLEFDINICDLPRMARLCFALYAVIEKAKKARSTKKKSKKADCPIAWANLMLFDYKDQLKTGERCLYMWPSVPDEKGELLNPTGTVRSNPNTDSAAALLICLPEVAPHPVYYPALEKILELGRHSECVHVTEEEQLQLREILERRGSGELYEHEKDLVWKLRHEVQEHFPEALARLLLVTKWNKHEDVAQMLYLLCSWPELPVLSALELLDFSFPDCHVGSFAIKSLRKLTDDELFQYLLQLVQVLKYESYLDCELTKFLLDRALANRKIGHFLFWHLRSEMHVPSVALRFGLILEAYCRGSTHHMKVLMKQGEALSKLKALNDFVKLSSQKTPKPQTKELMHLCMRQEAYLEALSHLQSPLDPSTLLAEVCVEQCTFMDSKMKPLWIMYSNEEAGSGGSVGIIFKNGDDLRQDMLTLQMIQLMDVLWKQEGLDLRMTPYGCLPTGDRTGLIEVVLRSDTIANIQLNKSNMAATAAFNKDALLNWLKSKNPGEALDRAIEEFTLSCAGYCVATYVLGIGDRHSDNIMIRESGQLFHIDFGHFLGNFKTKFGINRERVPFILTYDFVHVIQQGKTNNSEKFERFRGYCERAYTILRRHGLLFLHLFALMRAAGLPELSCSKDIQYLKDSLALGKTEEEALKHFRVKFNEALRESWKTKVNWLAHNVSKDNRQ
Sequence of PI3Kδ (p110δ/p85α) Recombinant Human Protein (P27986 whole entry partner): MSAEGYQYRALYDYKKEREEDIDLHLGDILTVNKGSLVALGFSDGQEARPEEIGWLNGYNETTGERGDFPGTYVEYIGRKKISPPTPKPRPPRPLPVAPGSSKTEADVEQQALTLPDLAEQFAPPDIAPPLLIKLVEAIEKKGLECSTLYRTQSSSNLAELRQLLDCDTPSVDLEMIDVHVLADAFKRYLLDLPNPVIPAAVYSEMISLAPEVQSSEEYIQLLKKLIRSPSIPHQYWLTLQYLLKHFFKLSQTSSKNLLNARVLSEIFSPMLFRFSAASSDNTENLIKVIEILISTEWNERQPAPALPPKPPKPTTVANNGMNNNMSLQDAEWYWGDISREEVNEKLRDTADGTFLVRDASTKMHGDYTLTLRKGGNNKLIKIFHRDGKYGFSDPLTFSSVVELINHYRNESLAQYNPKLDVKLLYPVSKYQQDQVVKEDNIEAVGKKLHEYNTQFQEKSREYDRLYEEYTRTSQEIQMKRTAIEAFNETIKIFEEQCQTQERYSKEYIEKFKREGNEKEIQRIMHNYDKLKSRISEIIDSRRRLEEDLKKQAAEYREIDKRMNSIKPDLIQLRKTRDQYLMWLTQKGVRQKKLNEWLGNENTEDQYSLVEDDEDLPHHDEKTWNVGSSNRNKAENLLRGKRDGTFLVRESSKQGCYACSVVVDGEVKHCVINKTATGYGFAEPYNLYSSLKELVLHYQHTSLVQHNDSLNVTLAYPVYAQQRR
How it was run: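 Recombinant human p110δ/p85α was run at room temperature in 20 mM MOPS pH 6.7, 10 mM MgCl2, 5 mM DTT, 0.03% CHAPS, 2% DMSO. Substrates were 20 µM PIP2 and 2 µM ATP with [γ-33P]ATP. Product was captured overnight on WGA SPA beads and counted by scintillation; IC50 fitted from percent of solvent control versus log concentration.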

[3] = test system: Phosphorylated Ribosomal Protein S6 (RPS6) in THP-1 cells; test: THP-1 RPS6 ELISA assay; assay type: cell-based, Human; details: serum starved, 2 h compound, 10 nM MCP-1 for 15 min, phospho-RPS6 ELISA, read-out: PI3Kγ_THP1_RPS6_ELISA IC50
How it was run: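 Serum-starved THP-1 cells (2×10^5/well, RPMI) preincubated with compound 2 h at 37° C, then stimulated with 10 nM MCP-1 for 15 min. Lysates assayed by phospho-RPS6 ELISA, absorbance 450 nm (540 nm correction); IC50 from percent inhibition versus log concentration.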

[4] = Homo sapiens, THP-1, THP-1 cells

SMILES	IC50 [1]	IC50 [2]	IC50 [3, 4]	IC50 ([3]; THP-1 cells)
CNCCC(O)(c1ccc(C)c(-c2cnc3c(N)nc(C(F)(F)F)cn23)c1)C(F)(F)F (single isomer, unassigned) [Example 15, 2-(3-(8-Amino-6-(trifluoromethyl)imidazo[1,2-a]pyrazin-3-yl)-4-methylphenyl)-1,1,1-trifluoro-4-(methylamino)butan-2-ol]	< 100 nM	100 to 500 nM		100 to 500 nM
Cc1ccc(C(O)(c2nnnn2C)C(F)(F)F)cc1-c1cnc2c(N)nc(C(F)(F)F)cn12 (stereo not drawn) [Example 13, 1-(3-(8-Amino-6-(trifluoromethyl)imidazo[1,2-a]pyrazin-3-yl)-4-methylphenyl)-2,2,2-trifluoro-1-(1-methyl-1H-tetrazol-5-yl)ethan-1-ol trifluoroacetate]	< 100 nM	100 to 500 nM	100 to 500 nM	
Cc1ccc(C(C)(O)C(F)(F)F)cc1-c1cnc2c(N)nc(C(F)(F)F)cn12 (single isomer, unassigned) [Example 5, 2-(3-(8-Amino-6-(trifluoromethyl)imidazo[1,2-a]pyrazin-3-yl)-4-methylphenyl)-1,1,1-trifluoropropan-2-ol]	< 100 nM	100 to 500 nM		500 to 1000 nM

More lines, main results first:

IC50 [1]	IC50 [2]	IC50 [3, 4]	SMILES	IC50 ([3]; THP-1 cells)
< 100 nM	< 100 nM	< 100 nM	Cc1ccc(C(C)(O)C(F)F)cc1-c1cnc2c(N)nc(-c3cnn(C)c3)cn12 (stereo not drawn) [Example 37, 2-(3-(8-Amino-6-(1-methyl-1H-pyrazol-4-yl)imidazo[1,2-a]pyrazin-3-yl)-4-methylphenyl)-1,1-difluoropropan-2-ol]	
< 100 nM	100 to 500 nM	100 to 500 nM	Cc1ncc(-c2nc(N)c3ncc(-c4cc(C(C)(O)C(F)F)ccc4C)n3n2)o1 (single isomer, unassigned) [Example 52, 2-(3-(4-Amino-2-(2-methyloxazol-5-yl)imidazo[2,1-f][1,2,4]triazin-7-yl)-4-methylphenyl)-1,1-difluoropropan-2-ol trifluoroacetate salt]	
